Results published in patent US20080009418A1, “Selective Inhibitors” (Alchemia LTD., priority 2004, published 2008).

Columns and labels:
[1] = molecular target: T1, Human melanin-concentrating hormone (MCH1) (Homo sapiens, UniProt Q99705); test: Radioligand binding, human melanin-concentrating hormone MCH1 membranes, FlashPlate, [125I]-S36057; details: compound at 10 μM; [125I]-S36057
T1 construct: purchased Perkin Elmer Biosignal
Procedure, shortened: (§1)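 Cloned human receptor membranes were coated onto FlashPlate wells and incubated with radioligand and compound (added from a 0.5 mM DMSO daughter plate) for 1 hour at room temperature in the dark. Scintillation counting gave percent inhibition, with DMSO defining total and reference ligand defining non-specific binding.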

[2] = molecular target: T2, Human Melanocortin (MC4) (Homo sapiens, UniProt P32245); test: Radioligand binding, human melanocortin MC4 membranes, FlashPlate, [125I]-NDP-αMSH; details: compound at 10 μM; [125I]-NDP-αMSH
T2 construct: purchased Perkin Elmer Biosignal
T2 sequence (P32245 whole entry): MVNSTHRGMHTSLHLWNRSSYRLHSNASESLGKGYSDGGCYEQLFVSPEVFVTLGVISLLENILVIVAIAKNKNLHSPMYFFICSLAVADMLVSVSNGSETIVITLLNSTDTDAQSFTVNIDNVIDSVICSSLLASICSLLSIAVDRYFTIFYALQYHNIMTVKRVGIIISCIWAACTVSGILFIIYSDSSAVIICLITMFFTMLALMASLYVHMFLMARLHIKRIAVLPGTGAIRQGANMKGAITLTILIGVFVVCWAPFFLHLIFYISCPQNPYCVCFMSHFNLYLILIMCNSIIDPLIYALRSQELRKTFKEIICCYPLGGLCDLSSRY
Procedure, shortened: as §1

[3] = molecular target: T3, Human κ-Opioid (KOP) (Homo sapiens, UniProt P41145); test: Radioligand binding, human κ-opioid (KOP) membranes, filtration, [3H]-Diprenorphine; details: compound at 10 μM; [3H]-Diprenorphine
T3 construct: purchased Perkin Elmer Biosignal
T3 sequence (P41145 whole entry): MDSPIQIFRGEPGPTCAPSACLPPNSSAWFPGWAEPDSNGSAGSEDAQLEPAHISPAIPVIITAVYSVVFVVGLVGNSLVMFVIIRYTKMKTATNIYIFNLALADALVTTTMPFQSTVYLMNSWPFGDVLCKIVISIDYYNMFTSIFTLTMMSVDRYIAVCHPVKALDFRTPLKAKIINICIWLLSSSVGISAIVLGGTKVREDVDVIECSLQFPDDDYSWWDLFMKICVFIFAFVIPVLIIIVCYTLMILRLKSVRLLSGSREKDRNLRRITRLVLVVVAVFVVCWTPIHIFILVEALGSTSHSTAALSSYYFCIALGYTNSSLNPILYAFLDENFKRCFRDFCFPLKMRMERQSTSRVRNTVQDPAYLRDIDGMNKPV
Procedure, shortened: (§2)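 Filtration binding on cloned human receptor membranes (1 Unit/well), [125I]-Substance P for NK1 and [3H]-Diprenorphine for KOP, 1 h at room temperature. Filters PEI-presoaked, washed with cold 50 mM Tris-HCl pH 7.4, counted by scintillation; percent inhibition calculated, reference ligand defining non-specific binding.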

[4] = molecular target: T4, Mouse urotensin (mUR2) (Mus musculus, UniProt Q8VIH9); test: Radioligand binding, mouse urotensin mUR2 membranes, FlashPlate, [125I]-Urotensin II; details: compound at 10 μM; [125I]-Urotensin II
T4 construct: purchased Perkin Elmer Biosignal
T4 sequence (Q8VIH9 1-385): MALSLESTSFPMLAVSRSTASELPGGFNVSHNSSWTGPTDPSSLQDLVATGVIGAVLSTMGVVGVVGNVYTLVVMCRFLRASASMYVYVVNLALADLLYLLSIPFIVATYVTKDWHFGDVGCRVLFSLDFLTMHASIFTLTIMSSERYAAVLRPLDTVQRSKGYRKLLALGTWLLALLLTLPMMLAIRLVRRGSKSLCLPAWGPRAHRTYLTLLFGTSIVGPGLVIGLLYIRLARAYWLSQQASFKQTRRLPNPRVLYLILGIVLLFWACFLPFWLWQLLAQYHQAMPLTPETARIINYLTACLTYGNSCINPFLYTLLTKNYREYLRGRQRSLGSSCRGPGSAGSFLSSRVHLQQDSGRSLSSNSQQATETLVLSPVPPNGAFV
Procedure, shortened: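 Cloned mouse urotensin (mUR2) receptor membranes from Perkin Elmer Biosignal were immobilized in FlashPlate microplates using a proprietary coating. Each well got 19.5 μl buffer, then 0.5 μl of DMSO, reference ligand, or compound. Adding 5 μl of [125I]-Urotensin II, diluted to 5× final concentration in binding buffer, started binding. Plates were sealed with TopSeal-A and incubated 1 hour at room temperature in the dark. Wells were counted for 30 seconds each on a TopCount after a 60-second delay, and percentage inhibition was calculated.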

[5] = molecular target: T5, Human δ-opioid (DOP) (Homo sapiens, UniProt P41143); test: Radioligand binding, human δ-opioid (DOP) membranes, FlashPlate, [3H]-Bremazocine; details: compound at 10 μM; [3H]-Bremazocine
T5 construct: purchased Perkin Elmer Biosignal
T5 sequence (P41143 whole entry): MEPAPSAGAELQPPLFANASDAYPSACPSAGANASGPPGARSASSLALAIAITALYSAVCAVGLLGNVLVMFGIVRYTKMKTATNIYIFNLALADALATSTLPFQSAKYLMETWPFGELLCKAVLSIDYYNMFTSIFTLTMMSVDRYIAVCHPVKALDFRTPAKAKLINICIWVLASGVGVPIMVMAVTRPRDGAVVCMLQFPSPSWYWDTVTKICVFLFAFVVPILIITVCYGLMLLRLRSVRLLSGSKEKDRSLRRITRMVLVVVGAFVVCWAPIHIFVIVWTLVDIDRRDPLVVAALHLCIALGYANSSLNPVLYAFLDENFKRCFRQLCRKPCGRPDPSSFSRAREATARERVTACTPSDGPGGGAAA
Procedure, shortened: as §1

[6] = molecular target: T6, Human opioid (ORL1) (Homo sapiens, UniProt P41146); test: Radioligand binding, human opioid ORL1 membranes, FlashPlate, [125I]-Nociceptin; details: compound at 10 μM; [125I]-Nociceptin
T6 construct: purchased Perkin Elmer Biosignal
T6 sequence (P41146 whole entry): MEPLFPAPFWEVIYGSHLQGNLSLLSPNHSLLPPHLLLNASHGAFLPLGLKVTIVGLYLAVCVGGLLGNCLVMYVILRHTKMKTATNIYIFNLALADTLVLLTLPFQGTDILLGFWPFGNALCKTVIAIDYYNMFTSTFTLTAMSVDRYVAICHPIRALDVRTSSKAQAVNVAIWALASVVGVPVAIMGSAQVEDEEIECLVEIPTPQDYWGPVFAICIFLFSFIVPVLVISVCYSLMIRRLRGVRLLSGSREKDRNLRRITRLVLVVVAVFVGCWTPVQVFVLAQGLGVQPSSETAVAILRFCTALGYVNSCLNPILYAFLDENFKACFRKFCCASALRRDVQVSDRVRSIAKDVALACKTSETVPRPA
Procedure, shortened: as §1

[7] = molecular target: T7, Human melanocortin (MC5) (Homo sapiens, UniProt P33032); test: Radioligand binding, human melanocortin MC5 membranes, FlashPlate, [125I]-NDP-αMSH; details: compound at 10 μM; [125I]-NDP-αMSH
T7 construct: purchased Perkin Elmer Biosignal
T7 sequence (P33032 whole entry): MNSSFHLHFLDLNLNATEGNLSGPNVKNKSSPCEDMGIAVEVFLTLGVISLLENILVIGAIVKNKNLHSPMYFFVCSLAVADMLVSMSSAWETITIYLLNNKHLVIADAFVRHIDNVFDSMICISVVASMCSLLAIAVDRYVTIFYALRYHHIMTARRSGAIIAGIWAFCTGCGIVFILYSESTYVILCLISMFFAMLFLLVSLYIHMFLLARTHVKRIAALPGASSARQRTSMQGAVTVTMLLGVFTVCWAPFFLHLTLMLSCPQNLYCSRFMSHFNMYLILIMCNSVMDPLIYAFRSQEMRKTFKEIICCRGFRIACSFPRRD
Procedure, shortened: as §1

[8] = molecular target: T8, Human Melanocortin (MC3) (Homo sapiens, UniProt P41968); test: Radioligand binding, human melanocortin MC3 membranes, FlashPlate, [125I]-NDP-αMSH; details: compound at 10 μM; [125I]-NDP-αMSH
T8 construct: purchased Perkin Elmer Biosignal
T8 sequence (P41968 whole entry): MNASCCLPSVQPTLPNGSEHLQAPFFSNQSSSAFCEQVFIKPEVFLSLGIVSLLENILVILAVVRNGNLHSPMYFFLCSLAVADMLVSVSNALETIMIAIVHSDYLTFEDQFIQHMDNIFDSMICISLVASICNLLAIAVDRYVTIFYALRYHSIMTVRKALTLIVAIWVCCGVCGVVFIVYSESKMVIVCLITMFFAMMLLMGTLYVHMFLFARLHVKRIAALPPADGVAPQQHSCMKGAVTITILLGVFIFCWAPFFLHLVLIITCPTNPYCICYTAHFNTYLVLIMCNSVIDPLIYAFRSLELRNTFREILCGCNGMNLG
Procedure, shortened: as §1

[9] = molecular target: T9, Human μ-opioid (MOP) (Homo sapiens, UniProt P35372); test: Radioligand binding, human μ-opioid (MOP) membranes, FlashPlate, [3H]-Naloxone; details: compound at 10 μM; [3H]-Naloxone
T9 construct: purchased Perkin Elmer Biosignal
T9 sequence (P35372 whole entry): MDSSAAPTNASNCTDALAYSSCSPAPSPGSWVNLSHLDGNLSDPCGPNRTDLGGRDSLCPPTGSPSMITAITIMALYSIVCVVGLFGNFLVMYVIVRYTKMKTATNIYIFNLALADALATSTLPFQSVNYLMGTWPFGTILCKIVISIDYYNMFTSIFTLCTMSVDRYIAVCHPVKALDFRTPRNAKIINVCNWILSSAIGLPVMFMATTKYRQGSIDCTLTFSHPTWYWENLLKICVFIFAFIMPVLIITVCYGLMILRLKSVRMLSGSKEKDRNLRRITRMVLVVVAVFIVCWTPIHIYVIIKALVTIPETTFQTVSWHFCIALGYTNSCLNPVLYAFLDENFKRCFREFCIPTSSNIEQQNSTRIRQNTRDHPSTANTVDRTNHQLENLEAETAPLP
Procedure, shortened: as §1

[10] = molecular target: T10, Human neuropeptide Y (NPY-Y1) (Homo sapiens, UniProt P25929); test: Radioligand binding, human neuropeptide Y NPY-Y1 membranes, FlashPlate, [125I]-PYY; details: compound at 10 μM; [125I]-PYY
T10 construct: purchased Perkin Elmer Biosignal
T10 sequence (P25929 1-384): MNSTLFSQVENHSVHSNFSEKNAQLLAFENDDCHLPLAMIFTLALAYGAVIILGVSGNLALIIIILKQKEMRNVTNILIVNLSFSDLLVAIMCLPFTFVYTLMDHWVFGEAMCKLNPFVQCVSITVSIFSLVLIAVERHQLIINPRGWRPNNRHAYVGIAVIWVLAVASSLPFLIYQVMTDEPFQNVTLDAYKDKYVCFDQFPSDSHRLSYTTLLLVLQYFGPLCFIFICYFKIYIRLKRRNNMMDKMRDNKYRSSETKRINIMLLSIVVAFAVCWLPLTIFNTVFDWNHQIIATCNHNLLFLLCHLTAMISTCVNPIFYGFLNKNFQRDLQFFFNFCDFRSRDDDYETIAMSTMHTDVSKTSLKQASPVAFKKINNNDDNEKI
Procedure, shortened: as §1

[11] = molecular target: T11, Human neurokinin (NK1) (Homo sapiens, UniProt P25103); test: Radioligand binding, human neurokinin NK1 membranes, filtration, [125I]-Substance P; details: compound at 10 μM; [125I]-Substance P
T11 construct: purchased Perkin Elmer Biosignal
T11 sequence (P25103 whole entry): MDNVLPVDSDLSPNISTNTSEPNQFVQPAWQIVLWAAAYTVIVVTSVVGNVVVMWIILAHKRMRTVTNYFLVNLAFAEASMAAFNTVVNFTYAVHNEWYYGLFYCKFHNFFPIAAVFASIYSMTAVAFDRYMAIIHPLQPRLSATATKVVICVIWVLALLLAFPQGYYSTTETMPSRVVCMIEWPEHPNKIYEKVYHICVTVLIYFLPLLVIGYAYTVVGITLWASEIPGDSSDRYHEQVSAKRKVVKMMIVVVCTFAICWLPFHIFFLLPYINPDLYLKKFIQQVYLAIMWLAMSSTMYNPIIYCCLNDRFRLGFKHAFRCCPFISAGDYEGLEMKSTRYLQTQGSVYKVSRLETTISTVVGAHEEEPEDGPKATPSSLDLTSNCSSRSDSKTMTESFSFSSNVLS
Procedure, shortened: as §2

T1 sequence (Q99705 whole entry): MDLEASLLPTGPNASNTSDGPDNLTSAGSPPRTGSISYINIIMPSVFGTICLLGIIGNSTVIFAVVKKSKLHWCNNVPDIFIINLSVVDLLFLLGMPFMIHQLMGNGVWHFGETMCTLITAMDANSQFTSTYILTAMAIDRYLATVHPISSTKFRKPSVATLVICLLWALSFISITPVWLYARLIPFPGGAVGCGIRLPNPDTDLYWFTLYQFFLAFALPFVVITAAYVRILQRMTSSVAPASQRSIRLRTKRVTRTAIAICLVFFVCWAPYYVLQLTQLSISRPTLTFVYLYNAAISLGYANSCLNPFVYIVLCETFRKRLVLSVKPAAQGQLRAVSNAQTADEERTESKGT

Structure (SMILES)	A6 radioligand binding, percentage inhibition [1]	A4 radioligand binding, percentage inhibition [2]	A2 radioligand binding, percentage inhibition [3]	A11 radioligand binding, percentage inhibition [4]	A1 radioligand binding, percentage inhibition [5]	A10 radioligand binding, percentage inhibition [6]	A5 radioligand binding, percentage inhibition [7]	A3 radioligand binding, percentage inhibition [8]	A7 radioligand binding, percentage inhibition [9]	A9 radioligand binding, percentage inhibition [10]	A8 radioligand binding, percentage inhibition [11]
CO[C@H]1[C@H](O)[C@@H](COCc2ccc3ccccc3c2)OC(OCc2ccc(Cl)cc2)[C@@H]1NC(=O)CNC(=N)N (stereo partly shown) [compound 97]	− (“−” indicates less than 50% inhibition at 10 μM)	+ (“+” indicates greater than 50% inhibition at 10 μM)	− (“−” indicates less than 50% inhibition at 10 μM)	− (“−” indicates less than 50% inhibition at 10 μM)	− (“−” indicates less than 50% inhibition at 10 μM)	+ (“+” indicates greater than 50% inhibition at 10 μM)	+ (“+” indicates greater than 50% inhibition at 10 μM)	+ (“+” indicates greater than 50% inhibition at 10 μM)	− (“−” indicates less than 50% inhibition at 10 μM)	− (“−” indicates less than 50% inhibition at 10 μM)	+ (“+” indicates greater than 50% inhibition at 10 μM)
CO[C@H]1[C@H](O)[C@@H](COCc2ccc3ccccc3c2)OC(OCc2ccc(Cl)cc2)[C@@H]1NC(=O)CCNC(=N)N (stereo partly shown) [compound 98]	+ (“+” indicates greater than 50% inhibition at 10 μM)	+ (“+” indicates greater than 50% inhibition at 10 μM)	− (“−” indicates less than 50% inhibition at 10 μM)	− (“−” indicates less than 50% inhibition at 10 μM)	− (“−” indicates less than 50% inhibition at 10 μM)	− (“−” indicates less than 50% inhibition at 10 μM)	+ (“+” indicates greater than 50% inhibition at 10 μM)	− (“−” indicates less than 50% inhibition at 10 μM)	− (“−” indicates less than 50% inhibition at 10 μM)	− (“−” indicates less than 50% inhibition at 10 μM)	+ (“+” indicates greater than 50% inhibition at 10 μM)
CO[C@H]1[C@H](O)[C@@H](COCc2ccc3ccccc3c2)OC(OCc2ccc(Cl)cc2)[C@@H]1NC(=O)CCCN (stereo partly shown) [compound 99]	− (“−” indicates less than 50% inhibition at 10 μM)	+ (“+” indicates greater than 50% inhibition at 10 μM)	− (“−” indicates less than 50% inhibition at 10 μM)	− (“−” indicates less than 50% inhibition at 10 μM)	− (“−” indicates less than 50% inhibition at 10 μM)	− (“−” indicates less than 50% inhibition at 10 μM)	+ (“+” indicates greater than 50% inhibition at 10 μM)	− (“−” indicates less than 50% inhibition at 10 μM)	− (“−” indicates less than 50% inhibition at 10 μM)	− (“−” indicates less than 50% inhibition at 10 μM)	+ (“+” indicates greater than 50% inhibition at 10 μM)
CO[C@H]1[C@H](O)[C@@H](COCc2ccc3ccccc3c2)OC(OCc2ccc(Cl)cc2)[C@@H]1NC(=O)CCCNC(=N)N (stereo partly shown) [compound 100]	+ (“+” indicates greater than 50% inhibition at 10 μM)	+ (“+” indicates greater than 50% inhibition at 10 μM)	− (“−” indicates less than 50% inhibition at 10 μM)	− (“−” indicates less than 50% inhibition at 10 μM)	− (“−” indicates less than 50% inhibition at 10 μM)	+ (“+” indicates greater than 50% inhibition at 10 μM)	+ (“+” indicates greater than 50% inhibition at 10 μM)	+ (“+” indicates greater than 50% inhibition at 10 μM)	+ (“+” indicates greater than 50% inhibition at 10 μM)	− (“−” indicates less than 50% inhibition at 10 μM)	+ (“+” indicates greater than 50% inhibition at 10 μM)
CO[C@H]1[C@H](O)[C@@H](COCc2ccccc2)OC(OCc2ccc(Cl)cc2)[C@@H]1NC(=O)CNC(=N)N (stereo partly shown) [compound 101]	− (“−” indicates less than 50% inhibition at 10 μM)	− (“−” indicates less than 50% inhibition at 10 μM)	− (“−” indicates less than 50% inhibition at 10 μM)	− (“−” indicates less than 50% inhibition at 10 μM)	− (“−” indicates less than 50% inhibition at 10 μM)	− (“−” indicates less than 50% inhibition at 10 μM)	+ (“+” indicates greater than 50% inhibition at 10 μM)	− (“−” indicates less than 50% inhibition at 10 μM)	− (“−” indicates less than 50% inhibition at 10 μM)	− (“−” indicates less than 50% inhibition at 10 μM)	− (“−” indicates less than 50% inhibition at 10 μM)
